# Results taken from patent US20120058961A1, “Pharmaceutical Composition for Treating Cancers” (HENKAN PHARMACEUTICAL CO., LTD., priority 2010, published 2012).
# Tested on: Human prostatic carcinoma PC-3 cells
# Experiment: Apoptosis assay (cell death detection ELISA, nucleosome level) in PC-3 cells
# Type: cell-based
# Method: Human prostatic carcinoma PC-3 cells (ATCC, CRL-1435, USA) were used for apoptosis assay. The apoptosis test was conducted following the method as described by Guseva et al. […] The cell death of each test was detected by ELISA following the method as provided by Holdenrieder et al. (Holdenrieder et al., Quantification of nucleosomes in serum by the cell death detection ELISA^plus. Roche Applied Science Biochemica. 1: 25-27, 2002). The cells were collected after incubation, and then lysed and evaluated for nucleosome levels by ELISA kit (Cell Death Detection ELISA^PLUS Kit, Roche, 1774425). The read absorbance at 405 nm was measured for each test compound or a vehicle and the values of apoptosis % were calculated. […] Assay Reference FasL (3 nM) was added to the control wells (named as Total wells) and the Incubation buffer to the Blank wells. HK-06-[…] at a concentration of 8 μM or 3 μM was added to each well, and the plate was then incubated in Antagonist buffer for 16 hours at 37° C., 5% CO2. The nucleosome level of each well was determined by the cell death detection kit. […] The plate was then incubated in Agonist buffer for 16 hours at 37° C., 5% CO2. The nucleosome level of each well was determined by the cell death detection kit. In the assays for SAHA and HK-06-[…], SAHA at a concentration of 0.1 μM, 1 μM, 10 μM, 100 μM or 300 μM was replaced for the NaB. The HK-06-[…] at a concentration of 4.5 μM was used. Results are expressed as a percentage of the group treated with the test compound as compared to that of the control group.
SMILES,means of Apoptosis % (8 uM HK-06-D01 only (FIG. 1B)) [%],means of Apoptosis % (8 uM HK-06-D01 only as printed (FIG. 1C)) [%],"means of Apoptosis % (8 uM HK-06-D01 only, 16 hours, relative to 3 nM Fas Ligand = 100% (FIG. 1A)) [%]",means of Apoptosis % (0.3 mM NaB only (FIG. 1B)) [%],means of Apoptosis % (0.3 mM NaB only as printed (FIG. 1C)) [%],"means of Apoptosis % (1 mM NaB only, 16 hours, relative to 3 nM Fas Ligand = 100% (FIG. 1A)) [%]"
"C[C@H](CCC1(O)O[C@H]2C[C@H]3[C@@H]4CC=C5C[C@@H](O[C@@H]6O[C@H](CO)[C@@H](O[C@@H]7O[C@@H](C)[C@H](O[C@@H]8O[C@@H](C)[C@H](O)[C@@H](O)[C@H]8O)[C@@H](O)[C@H]7O)[C@H](O)[C@H]6O[C@@H]6O[C@@H](C)[C@H](O)[C@@H](O)[C@H]6O)CC[C@]5(C)[C@H]4CC[C@]3(C)[C@H]2[C@@H]1C)CO[C@@H]1O[C@H](CO)[C@@H](O)[C@H](O)[C@H]1O (stereo partly drawn) [HK-06-D01, (25R)-26-O-beta-D-glucopyranosyl-22-hydroxy-5-ene-furostan-3beta, 26-diol-3-O-alpha-L-rhamnopyranosyl-(1→4)-alpha-L-rhamnopyranosyl-(1→4)-[alpha-L-rhamnopyranosyl-(1→2)]-beta-D-glucopyranoside]",51,5,46.67,–,–,–
"CCCC(=O)[O-].[Na+] [NaB, sodium butyrate]",–,–,–,4,3,29.67
